Buffer properties and electrical conductivity data for two compounds are collected here from patent US20150105471A1, “PARACETAMOL FOR PARENTERAL ADMINISTRATION” (Fresenius Kabi Deutschland GmbH, priority 2009, published 2015).

Structures are written as SMILES.

Data set [1] is described as follows: buffer properties of cysteine. Format: physicochemical. The settings on record: pH 5.5 to 7. The text has this: In a preferred embodiment, the composition according to the invention, preferably an infusion solution, contains cysteine, if appropriate additionally to mannitol.
Data set [2] in a line: electrical conductivity of aqueous paracetamol solutions. Format: physicochemical. As for the experimental part:
The composition according to the invention, preferably an infusion solution, has an electrical conductivity of at most 200 μS cm^−1. The measurement of the electrical conductivity of aqueous solutions is known to the person skilled in the art and suitable measuring apparatuses are obtainable commercially. The electrical conductivity is preferably measured at room temperature. […]
Aqueous solutions of paracetamol and further ingredients were prepared. The electrical conductivity of the solutions was measured and the storage stability of paracetamol was determined by means of the formation of degradation products (for the formation of the dimer cf., for example, D. W. Pottert et al, J Biol Chem, 1985, […], 12174-80; W. Clegg et al., Acta Crystallographica, 1998, C54, 1881-2).

Consider `N[C@@H](CS)C(=O)O` [cysteine], for which, in data set [1], the buffer properties entry is recorded as “no buffer properties at all”. As for `CC(=O)Nc1ccc(O)cc1` [paracetamol], the electrical conductivity entry in data set [2] (10 g of paracetamol in 1000 ml of water) is listed as “about 4 μS/cm”; in data set [2] (10 g of paracetamol in 1000 ml of water plus 100 mg of NaCl (0.01% by weight of NaCl)), “about 200 μS/cm”.
